Measurements as given in patent publication US20240002419A1, “RADIATION-ACTIVATED TETRAVALENT PLATINUM COMPLEX AND USE THEREOF” (priority 2020, published 2024).

Test: Yield of reduced metal compounds under X-ray irradiation
Assay type: physicochemical
Conditions: not given
Protocol: Operation steps of test: the compound was dissolved in ultrapure water to prepare a 100 μM metal compound solution, and oxygen gas in the solution was removed by bubbling nitrogen gas for 15 minutes. […] Finally, the remaining amount of raw material was measured, the disappeared concentration of the reactant was calculated, and the radiation yield was calculated (radiation yield=disappeared concentration of reactant/radiation dose).

Row | SMILES | Yield (radiation yield = disappeared concentration of reactant/radiation dose)
1 | O=P([O-])([O-])O.[K+].[K+] [Compound 3, dipotassium hydrogen phosphate] | (No metal cation reduction
2 | [Cl-].[Cl-].[Mg+2] [Compound 4, magnesium chloride] | (No metal cation reduction
3 | O=S(=O)([O-])[O-].[Cu+2] [Compound 13, copper sulfate] | 209 nM/Gy

Same assay, conditions: 100 μM in deoxygenated ultrapure water, X-rays 0-1000 Gy, 4 Gy/min

Row | SMILES | Yield (radiation yield = disappeared concentration of reactant/radiation dose)
4 | [Cl-].[Na+] [Compound 1, sodium chloride] | (No metal cation reduction
5 | [Cl-].[K+] [Compound 2, potassium chloride] | (No metal cation reduction
6 | [Cl][Fe]([Cl])[Cl] [Compound 5, ferric chloride] | 578 nM/Gy
7 | [K+].[K+].[O]=[Cr](=[O])([O-])[O][Cr](=[O])(=[O])[O-] [Compound 9, potassium dichromate] | 87 nM/Gy
8 | [Cl][Ni][Cl] [Compound 10, nickel chloride] | 347 nM/Gy
9 | O=[N+]([O-])[O-].[Ag+] [Compound 14, silver nitrate] | 576 nM/Gy
10 | C1=Cc2cc3ccc(cc4nc(cc5ccc(cc1n2)[nH]5)C=C4)[nH]3.[Fe] [Compound 16, iron porphyrin] | 598 nM/Gy
11 | [NH2][Pt]([NH2])([Cl])([Cl])([O]C(=O)CCCC[P+](c1ccccc1)(c1ccccc1)c1ccccc1)[O]C(=O)CCCC[P+](c1ccccc1)(c1ccccc1)c1ccccc1 [Compound 18] | 427 nM/Gy

Test: Radiation-driven (γ-ray) release of Pt(II) drugs from Pt(IV) complexes, UPLC-MS and NMR
Assay type: physicochemical
Conditions: γ-rays (60Co, 40 kGy), D2O, deoxygenated
Description: To explore the generalizability of this strategy, we further conducted the same study on two other platinum-based drugs commonly used globally, carboplatin and cisplatin.

Row | SMILES | Product released after irradiation
12 | [NH2][Pt]1([NH2])([O]C(=O)CCC(=O)O)([O]C(=O)CCC(=O)O)[O]C(=O)C2(CCC2)C(=O)[O]1 [carboPt(IV)-(Suc)2] | release the corresponding Pt(II) drugs
13 | N.N.O=C(O)CCC(=O)[O][Pt]([Cl])([Cl])[O]C(=O)CCC(=O)O [cisPt(IV)-(Suc)2] | release the corresponding Pt(II) drugs
14 | NC1CCCCC1N.O=C(O)CCC(=O)[O][Pt]1([O]C(=O)CCC(=O)O)[O]C(=O)C(=O)[O]1 [oxaliPt(IV)-(Suc)2] | released product was oxaliplatin
